The test system of data set [1] is S. salivarius strain NU10. Kind of data set: Salivaricin induction assay, strain NU10. The following applies: 0.05 ml test sample (titre 4 AU/ml) added to washed cells in M17YESUCa, 18 h anaerobic; well diffusion assay, induced vs control tube. Format: cell-based, Streptococcus salivarius. The source says:
(§1) The bacteriocin-inducing activities present in crude extracts of S. salivarius strains NU10, YU10, K12 and in FPLC-purified salivaricin 9 peptide fractions having anti-Micrococcus luteus activity was investigated in this study. The crude extracts of producer cells designated as BLIS-NU10, BLIS-YU10 and BLIS-K12 were isolated by acidic methanol extraction of the producer cells as described previously. These crude BLIS extracts had the potential to contain at least two lantibiotics on the basis of PCR assessment for their content of lantibiotic structural genes. Strains NU10 and YU10 had the structural genes for salivaricin 9 and salivaricin A and strain K12 had salivaricin A and salivaricin B structural genes. […] Colonies from an 18 h culture of each S. salivarius strain NU10, YU10 and K12 grown anaerobically on BACa agar was used to inoculate 10 ml of M17YESUCa broth and incubated again under the same conditions. The cells were then collected by centrifugation at 18000 x g for 5 min and washed three times in saline buffer to reduce the levels of cell surface-associated lantibiotic before suspending in 10 ml of the same buffer. […] Induction of salivaricin 9 or salivaricin A production was recorded as inhibitory zones surrounding samples from the induced tubes but not the control tubes. […]

Data set [2] relates to S. salivarius strain YU10. Kind of data set: Salivaricin induction assay, strain YU10. It counts as cell-based, Streptococcus salivarius. The following applies: 0.05 ml test sample (titre 4 AU/ml) added to washed cells in M17YESUCa, 18 h anaerobic; well diffusion assay, induced vs control tube.
Excerpt: as §1
On the technique in general: Agar diffusion results depend on both activity and mobility in agar.

For data set [3], the system named is Streptococcus pyogenes ATCC12344. In words: Minimal inhibitory concentration (NCCLS). Format: cell-based. The following applies: pure salivaricin 9, NCCLS method. The protocol: An induced culture of S. salivarius NU10 was centrifuged at 8000 x g to pellet the cells. The cell free supernatant (CFS) was filtered through 0.2 µm sterilized cellulose membrane (Millipore) to ensure that all cell debris was removed. The filtered crude bacteriocin preparation was passed through 100 ml XAD-16 particles (Sigma) packed in a glass column. The column was washed with 400 ml of distilled water followed by 200 ml of 70% methanol before the active fraction was eluted using 200 ml of 95% methanol (adjusted to pH 2) at a flow rate of 15 ml/min. The methanol was removed using a rotary evaporator and the resulting peptide preparation was lyophilized and stored at -20°C. The lyophilized peptide pellets were dissolved in 20 mM sodium phosphate pH 5.8 (binding buffer). Then the sample was injected into a fast protein liquid chromatography (FPLC) system (ÄKTA Purifier™) using HiTrap SP FF 5ml strong cation exchanger column (GE Healthcare) equilibrated with the same buffer at a flow rate of 1 ml/min. Then the column was washed with 10X column volume of the binding buffer before salivaricin 9 was eluted using a linear gradient of 0 to 1M NaCl in 20 mM sodium phosphate buffer at pH 5.8 (Figure 4). […] MIC values of pure salivaricin 9 against a set of bacterial indicator strains were determined by following the National Committee for Clinical Laboratory Standards (NCCLS) (Table 3).

Data set [4] relates to Micrococcus luteus. In words: Mode of action, addition to growing culture (OD600). Format: cell-based. The following applies: added to different growth phases of Micrococcus luteus culture. The protocol: When added to different growth phases of Micrococcus luteus culture, salivaricin 9 induced cell lysis.
Figure 7 Bactericidal mode of action of salivaricin 9. Salivaricin 9 was added to different phases of bacterial growth. […] The sensitive bacteria Micrococcus luteus lost the ability to grow again after salivaricin 9 was added.

Data set [5] has as its system Micrococcus luteus. Kind of data set: pH stability (residual inhibitory activity). It counts as physicochemical. The following applies: for Inhibition zone after pH exposure: indicator Micrococcus luteus, titre 800 AU/ml.
Protocol: (§2) Heat stability was studied by exposing pure salivaricin 9 to different temperatures for one hour after which the sample was centrifuged and the supernatant tested for inhibitory activity. The stability of the peptide at different pH values was also evaluated and tested for inhibitory activity. Specific enzymatic effects of denaturation on salivaricin 9 were tested using two wells of 6mm diameter each separated by a distance of 4 mm in CAB plates. One well was filled with 50µl of pure salivaricin 9 while the other was filled with 50µl of the tested enzyme. The plate was incubated at 50°C for 2 hours and then incubated at 37°C overnight before seeding the indicator strain onto the agar surface using a cotton swab. Then the plate was re-incubated at 37°C for 18 hours and the zones of inhibitions that appeared indicated residual activity of salivaricin 9 while absence of inhibition zones indicated the denaturation of the antimicrobial peptide by the applied enzymes namely proteinase K, peptidase, lyticase and catalase. The stability of salivaricin 9 to treatment with the chemicals EDTA, SDS, urea, NaCl and β-mercaptoethanol was examined by adding 1% of these chemicals to the bacteriocin followed by incubation for two hours at RT before the samples were centrifuged and the supernatant tested as mentioned above. If the chemical was a solvent such as β-mercaptoethanol, then the solvent was evaporated before testing for antimicrobial activity (Table 4).
For data set [6], the system named is Proteinase. In words: Enzyme stability (residual inhibitory activity). It counts as physicochemical. The following applies: Proteinase 1 mg.ml^-1; adjacent wells, 50 µl each; 50°C 2 hours then 37°C overnight; indicator Micrococcus luteus; titre 800 AU/ml.
Protocol: (§3) Specific enzymatic effects of denaturation on salivaricin 9 were tested using two wells of 6mm diameter each separated by a distance of 4 mm in CAB plates. One well was filled with 50µl of pure salivaricin 9 while the other was filled with 50µl of the tested enzyme. The plate was incubated at 50°C for 2 hours and then incubated at 37°C overnight before seeding the indicator strain onto the agar surface using a cotton swab. Then the plate was re-incubated at 37°C for 18 hours and the zones of inhibitions that appeared indicated residual activity of salivaricin 9 while absence of inhibition zones indicated the denaturation of the antimicrobial peptide by the applied enzymes namely proteinase K, peptidase, lyticase and catalase.
Data set [7] deals with Lyticase. In words: Enzyme stability (residual inhibitory activity).
Protocol: as §3
Data set [8] has as its system Micrococcus luteus. In words: Stability to detergents / chemicals (residual inhibitory activity). It counts as physicochemical. The following applies: two hours at RT, indicator Micrococcus luteus, titre 800 AU/ml.
Protocol: as §2
Data set [9] has as its system Peptidase.
Protocol: Heat stability was studied by exposing pure salivaricin 9 to different temperatures for one hour after which the sample was centrifuged and the supernatant tested for inhibitory activity. The stability of the peptide at different pH values was also evaluated and tested for inhibitory activity. Specific enzymatic effects of denaturation on salivaricin 9 were tested using two wells of 6mm diameter each separated by a distance of 4 mm in CAB plates. One well was filled with 50µl of pure salivaricin 9 while the other was filled with 50µl of the tested enzyme. The plate was incubated at 50°C for 2 hours and then incubated at 37°C overnight before seeding the indicator strain onto the agar surface using a cotton swab. Then the plate was re-incubated at 37°C for 18 hours and the zones of inhibitions that appeared indicated residual activity of salivaricin 9 while absence of inhibition zones indicated the denaturation of the antimicrobial peptide by the applied enzymes namely proteinase K, peptidase, lyticase and catalase. The stability of salivaricin 9 to treatment with the chemicals EDTA, SDS, urea, NaCl and β-mercaptoethanol was examined by adding 1% of these chemicals to the bacteriocin followed by incubation for two hours at RT before the samples were centrifuged and the supernatant tested as mentioned above. […]

The structures appear in SMILES notation. Starred links: 1 amine or outer side, 2 acyl side, 3 side chain; linkers in the order of their positions; H or OH if unused. Positions of bridges follow the written chain, without caps; N, C: chain ends. Non-standard residues stand in square brackets, D forms with d. Residues, ends and D or L forms follow the SMILES beside them. dAbu(3S-yl) = C[C@@H]([C@@H](N[*:1])C(=O)[*:2])[*:3]; Dhb = C/C=C(\N)C(=O)O

For `C/C=C1\NC(=O)[C@H](Cc2c[nH]c3ccccc23)NC(=O)[C@@H]2NC(=O)[C@H](C)NC(=O)[C@H](CC(C)C)NC(=O)[C@H](CC(N)=O)NC(=O)[C@@H]3CS[C@@H](C)[C@@H](NC(=O)[C@H](CC(C)C)NC(=O)[C@@H](NC(=O)[C@@H](NC(=O)CNC(=O)[C@H](CC(N)=O)NC(=O)CN)C(C)C)C(C)C)C(=O)N[C@@H](CC(C)C)C(=O)N[C@@H](C(=O)N[C@@H](Cc4c[nH]cn4)C(=O)N[C@@H](CCC(=O)O)C(=O)N3)[C@H](C)SC[C@H](NC(=O)[C@H](CCCCN)NC(=O)[C@H](CC(C)C)NC(=O)[C@H](CCCCN)NC(=O)[C@H](CCCCN)NC1=O)C(=O)N[C@H](C(=O)O)CS[C@H]2C` [Salivaricin 9] (H-GNGVVL[dAbu(3S-yl)]L[dAbu(3S-yl)]HECNLA[dAbu(3S-yl)]W[Dhb]KKLKCC-OH; thioether 7-12, 9-23, 16-24; N-terminus and C-terminus assumed), the “Preparation induces inhibitor production in NU10” value in [1] is on record as “Yes”. In [2], the “Preparation induces inhibitor production in YU10” value is “Yes”. In addition, in data set [3], the “MIC of salivaricin 9” value is 32 µg/mL. The “Mode of action (OD600 after addition to culture)” value in data set [4] was “bactericidal and bacteriolytic”. Also, the figures for the “Inhibition zone after pH exposure” value in data set [5] (pH 2- 7), in data set [5] (pH 8-10) and in data set [5] (pH 11-12) were “++++ (inhibition zone >20 mm)”, “+++ (inhibition zone =20 mm)” and “-”, respectively. In addition, in data set [5] (pH range of 2 to 10), the “Antimicrobial activity after pH exposure (in words)” value is on record as “retained”. Further, the “Inhibition zone after enzyme treatment” value in data set [6] is recorded as “-”; in data set [7] (Lyticase 1 mg.ml^-1, adjacent wells, 50 µl each, 50°C 2 hours then 37°C overnight, indicator Micrococcus luteus, titre 800 AU/ml), “++++ (inhibition zone >20 mm)”; in data set [9] (Peptidase 1 mg.ml^-1, adjacent wells, 50 µl each, 50°C 2 hours then 37°C overnight, indicator Micrococcus luteus, titre 800 AU/ml), “-”. For the same compound, the “Antimicrobial activity after enzyme treatment (in words)” value in data set [7] (treated with lyticase) is on record as “remained active”; in data set [9] (treated with peptidase), “lost all antimicrobial activity”. Further, the “Inhibition zone after detergent / chemical treatment” value is reported as “++++ (inhibition zone >20 mm)” in [8] (EDTA 1% (w/v)); “++++ (inhibition zone >20 mm)” in [8] (NaCl 1% (w/v)); “++++ (inhibition zone >20 mm)” in [8] (SDS 1% (w/v)); “++ (inhibition zone < 20 mm)” in data set [8] (Tritone X100 1% (w/v)); “++++ (inhibition zone >20 mm)” in [8] (Tween 20 1% (w/v)); “++++ (inhibition zone >20 mm)” in data set [8] (Tween 80 1% (w/v)). In data set [8] (Urea 1% (w/v)), the “Inhibition zone after detergent / chemical treatment” value is on record as “++++ (inhibition zone >20 mm)”.

(Values after paper PMC3797685, “Enhanced Production, Purification, Characterization and Mechanism of Action of Salivaricin 9 Lantibiotic Produced by Streptococcus salivarius NU10” (PLoS ONE, 2013).)
